# Test results taken from patent US5773451A, “Substituted arylthioalkylthiopyridines” (BYK Gulden Lomberg Chemische Fabrik GmbH, priority 1993, dated 1998).
# Tested on: Helicobacter pylori
# Assay: activity against Helicobacter pylori (MIC 50, Columbia agar, growth period of 4 days)
# Type: cell-based
# Details: 96 h, Columbia agar (Oxoid), method of Iwahi et al., approximate values, read-out: Approx. MIC 50 value
# Text: The compounds of formula I have been investigated in respect of their activity against Helicobacter pylori in accordance with the method described by Tomoyuki Iwahi et al. (Antimicrobial Agents and Chemo-therapy, 1991, 490-496) using Columbia agar (Oxoid) over a growth period of 4 days. The approximate MIC 50 values listed in the following Table 2 resulted from these tests for the compounds studied (the numbers stated for the compounds agree with the compound numbers in the description).
row,Structure (SMILES),MIC50
1,"Cc1c(SCCCCSc2nnnn2C)ccnc1CSc1nc2ccccc2[nH]1 [Compound 24, 2-{[[3-Methyl-4-(4-(1-methyl-tetrazol-5-yl-thio)-butylthio)-2-pyridinyl]methyl]thio}-1H-benzimidazole]",~0.05 µg/mL
2,"Cc1c(SCCCSc2nncn2C)ccnc1CSc1nc2ccccc2[nH]1 [Compound 2, 2-{[[3-Methyl-4-(3-(4-methyl-1,2,4-triazol-3-yl-thio)-propylthio)-2-pyridinyl]methyl]thio}-1H-benzimidazole]",~0.05 µg/mL
3,Cc1c(SCCCSc2nc3ccccc3[nH]2)ccnc1CSc1nc2ccccc2[nH]1 [Compound 12],~0.05 µg/mL
4,"Cc1c(SCCCSc2nnnn2C)ccnc1CSc1nc2ccccc2[nH]1 [Compound 8, 2-{[[3-Methyl-4-(3-(1-methyl-tetrazol-5-yl-thio)-propylthio)-2-pyridinyl]methyl]thio}-1H-benzimidazole]",~0.05 µg/mL
5,"Cc1c(SCCCSc2nccn2C)ccnc1CSc1nc2ccccc2[nH]1 [Compound 3, 2-{[[3-Methyl-4-(3-(1-methylimidazol-2-yl-thio)-propylthio)-2-pyridinyl]methyl]thio}-1H-benzimidazole]",~0.05 µg/mL
6,Cc1c(SCCCSc2ccccc2)ccnc1CSc1nc2ccccc2[nH]1 [Compound 13],~0.05 µg/mL
7,Cc1nnc(SCCCSc2ccnc(CSc3nc4ccccc4[nH]3)c2C)s1 [Compound 1],~0.1 µg/mL
8,"Cc1c(SCCCSc2ccncc2)ccnc1CSc1nc2ccccc2[nH]1 [Compound 19, 2-{[[3-Methyl-4-(3-(pyridin-4-yl-thio)-propylthio)-2-pyridinyl]methyl]thio}-1H-benzimidazole]",~0.05 µg/mL
9,"Cc1c(SCCCSc2nnc(N)s2)ccnc1CSc1nc2ccccc2[nH]1 [Compound 5, 2-{[[4-[3-(5-Amino-1,3,4-thiadiazol-2-yl-thio)-propylthio]-3-methyl-2-pyridinyl]methyl]thio}-1H-benzimidazole]",~0.5 µg/mL
10,"Cc1c(SCCCSc2nncs2)ccnc1CSc1nc2ccccc2[nH]1.Cl.Cl.Cl [Compound 18, 2-{[[3-Methyl-4-(3-(1,3,4-thiadiazol-2-yl-thio)-propylthio)-2-pyridinyl]methyl]thio}-1H-benzimidazole trihydrochloride]",~0.05 µg/mL

# Second part, the compound after the results:
row,MIC50,Structure (SMILES)
1,~0.1 µg/mL,"Cc1c(SCCCSc2ncc[nH]2)ccnc1CSc1nc2ccccc2[nH]1 [Compound 6, 2-{[[4-[3-Imidazol-2-yl-thio-propylthio]-3-methyl-2-pyridinyl]methyl]thio}-1H-benzimidazole]"
2,~0.05 µg/mL,"Cc1c(SCCCSc2ncccn2)ccnc1CSc1nc2ccccc2[nH]1 [Compound 11, 2-{[[3-Methyl-4-(3-(pyrimidin-2-yl-thio)-propylthio)-2-pyridinyl]methyl]thio}-1H-benzimidazole]"
3,~0.05 µg/mL,"Cc1c(SCCCSc2ccccn2)ccnc1CSc1nc2ccccc2[nH]1 [Compound 10, 2-{[[3-Methyl-4-(3-(pyridin-2-yl-thio)-propylthio)-2-pyridinyl]methyl]thio}-1H-benzimidazole]"
4,~0.05 µg/mL,"Cc1c(SCCCSc2nccs2)ccnc1CSc1nc2ccccc2[nH]1 [Compound 9, 2-{[[3-Methyl-4-(3-(thiazol-2-yl-thio)-propylthio)2-pyridinyl]methyl]thio}-1H-benzimidazole]"
5,~0.05 µg/mL,"Cc1ccnc(SCCCSc2ccnc(CSc3nc4ccccc4[nH]3)c2C)n1 [Compound 16, 2-{[[3-Methyl-4-[3-(4-methyl-pyrimidine-2-yl-thio)-propylthio]-2-pyridinyl]methyl]thio}-1H-benzimidazole]"
